Counter-ions that a name gives are not always drawn. Like-named read-outs stand apart in the source and are kept apart here.
Key:
Assay in all cases: biochemical
ZmDRIK1-K217-S514 = target: T1, ZmDRIK1-K217-S514 (Zea mays, UniProt C0P4K9)
T1 construct: kinase domain, K217-S514
T1 sequence (C0P4K9 1-514): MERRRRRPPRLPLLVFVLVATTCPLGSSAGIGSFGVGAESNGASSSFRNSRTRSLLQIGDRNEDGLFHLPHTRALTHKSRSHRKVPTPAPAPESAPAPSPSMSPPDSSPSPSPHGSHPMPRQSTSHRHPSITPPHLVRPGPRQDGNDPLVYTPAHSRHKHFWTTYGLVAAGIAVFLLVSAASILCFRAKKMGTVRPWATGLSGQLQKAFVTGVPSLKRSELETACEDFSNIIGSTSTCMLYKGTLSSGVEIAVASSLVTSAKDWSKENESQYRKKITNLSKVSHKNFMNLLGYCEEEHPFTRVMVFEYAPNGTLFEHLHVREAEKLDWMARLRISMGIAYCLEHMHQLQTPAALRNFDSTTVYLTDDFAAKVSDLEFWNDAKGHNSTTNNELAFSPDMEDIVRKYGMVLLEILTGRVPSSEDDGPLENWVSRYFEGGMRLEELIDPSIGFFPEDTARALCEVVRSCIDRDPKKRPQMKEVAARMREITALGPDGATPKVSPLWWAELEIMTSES

[1] = target: T2, ZmDRIK1 (DROUGHT RESPONSIVE INACTIVE KINASE 1), kinase domain (Zea mays, UniProt C0P4K9)
T2 construct: gene ZEAMMB73_Zm00001d028770; ZmDRIK1-KD R187-S514 (kinase domain)
T2 sequence (C0P4K9 187-514): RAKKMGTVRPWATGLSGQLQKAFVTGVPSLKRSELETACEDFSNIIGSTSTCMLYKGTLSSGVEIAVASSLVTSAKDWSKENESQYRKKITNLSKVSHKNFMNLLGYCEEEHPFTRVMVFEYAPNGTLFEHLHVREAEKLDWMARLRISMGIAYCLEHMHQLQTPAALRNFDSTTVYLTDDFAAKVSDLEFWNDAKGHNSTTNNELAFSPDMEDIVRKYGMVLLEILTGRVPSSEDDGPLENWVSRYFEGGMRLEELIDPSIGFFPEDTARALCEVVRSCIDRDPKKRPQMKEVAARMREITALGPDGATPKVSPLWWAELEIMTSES

ZmDRIK1-R187-P492 = target: T3, ZmDRIK1-R187-P492 (Zea mays, UniProt C0P4K9)
T3 construct: kinase domain, R187-P492
T3 sequence (C0P4K9 1-514): T1 sequence (C0P4K9 1-514)

ZmDRIK1-K217-P492 = target: T4, ZmDRIK1-K217-P492 (Zea mays, UniProt C0P4K9)
T4 construct: kinase domain, K217-P492
T4 sequence (C0P4K9 1-514): T1 sequence (C0P4K9 1-514)

[2] = read-out: dTm B, sheet ZmDRIK1-K217-S514;, DSF, Boltzmann fit, 0.1% DMSO
[3] = read-out: dTm B, sheet ZmDRIK1-R187-S514;, DSF, Boltzmann fit, 0.1% DMSO
[4] = read-out: dTm B, DSF, Boltzmann fit, 0.1% DMSO
[5] = read-out: dTm B, sheet ZmDRIK1-K217-P492;, DSF, Boltzmann fit, 0.1% DMSO

Row | Compound | ΔTm at 10 µM (ZmDRIK1-K217-S514; [2]) [°C] | ΔTm at 10 µM [1, 3] [°C] | ΔTm at 10 µM (ZmDRIK1-R187-P492; [4]) [°C] | ΔTm at 10 µM (ZmDRIK1-K217-P492; [5]) [°C] | ΔTm at 10 µM (ZmDRIK1-K217-S514; read-out: dTm B) [°C] | ΔTm at 10 µM ([1]; read-out: dTm B) [°C] | ΔTm at 10 µM (ZmDRIK1-R187-P492; read-out: dTm B) [°C] | ΔTm at 10 µM (ZmDRIK1-K217-P492; read-out: dTm B) [°C]
1 | O=C(Nc1cccc(Cl)c1)Nc1ncc(CCNc2ncnc3ccsc23)s1 [SNS-314 Mesylate] | -1.86 | -23.9 | 0.159 | -0.277 | – | – | – | –
2 | Oc1c2ccccc2c2c3c(cccc13)N=N2 [SP600125] | -0.115 | -0.63 | -0.115 | -1.06 | – | – | – | –
3 | Cc1[nH]c(/C=C2\C(=O)Nc3ccc(S(=O)(=O)N(C)c4cccc(Cl)c4)cc32)c(C)c1C(=O)N1CCN(C)CC1 [SU11274] | -0.605 | -1.31 | -0.288 | -0.463 | – | – | – | –
4 | CN1CCN(CCOc2cc(OC3CCOCC3)c3c(Nc4c(Cl)ccc5c4OCO5)ncnc3c2)CC1 [Saracatinib (AZD0530)] | -0.253 | -0.646 | -0.196 | -1.11 | – | – | – | –
5 | Cn1cnc2c(F)c(Nc3ccc(Br)cc3Cl)c(C(=O)NOCCO)cc21 [Selumetinib (AZD6244)] | -0.433 | -0.69 | -0.268 | -1.37 | – | – | – | –
6 | O=C1c2ccc(Nc3ccc(F)cc3F)cc2CCc2ccc(OC[C@H](O)CO)cc21 [Skepinone-L] | -0.642 | -0.803 | -0.481 | -0.992 | – | – | – | –
7 | CN1CCN(c2nc(C3=C(c4c[nH]c5ccccc45)C(=O)NC3=O)c3ccccc3n2)CC1 [Sotrastaurin] | -0.412 | -0.541 | -0.608 | -0.642 | – | – | – | –
8 | CN[C@@H]1C[C@H]2O[C@@](C)([C@@H]1OC)n1c3ccccc3c3c4c(c5c6ccccc6n2c5c31)C(=O)NC4 [Staurosporine] | -0.232 | -0.601 | -0.154 | -0.631 | – | – | – | –
9 | CCN(CC)CCNC(=O)c1c(C)[nH]c(/C=C2\C(=O)Nc3ccc(F)cc32)c1C [Sunitinib Malate] | -0.287 | -0.745 | -0.348 | -0.864 | – | – | – | –
10 | CNC(=O)c1ccccc1Nc1nc(Nc2ccc(N3CCOCC3)cc2OC)ncc1Cl [TAE226 (NVP-TAE226)] | -0.321 | -0.781 | -0.231 | -0.725 | – | – | – | –
11 | COc1ccc(C(=O)Nc2sc3c(c2C(N)=O)CCCC3)cc1OC [TCS 359] | -0.549 | 0.606 | -0.318 | -0.245 | – | – | – | –
12 | Nc1nc(N)c2nc(-c3cccc(O)c3)c(-c3cccc(O)c3)nc2n1 [TG100-115] | -0.395 | -0.852 | -0.347 | -0.6 | – | – | – | –
13 | Cc1cnc(Nc2ccc(OCCN3CCCC3)cc2)nc1Nc1cccc(S(=O)(=O)NC(C)(C)C)c1 [TG101348 (SAR302503)] | -0.238 | -0.804 | -0.567 | -0.974 | – | – | – | –
14 | Cc1[nH]c(/C=C2\C(=O)Nc3ccccc32)c(C)c1CCC(=O)O [TSU-68 (SU6668)] | -0.226 | -0.64 | -0.199 | -1.14 | – | – | – | –
15 | COc1cc2c(N3CCN(C(=O)Nc4ccc(OC(C)C)cc4)CC3)ncnc2cc1OCCCN1CCCCC1 [Tandutinib (MLN518)] | -0.303 | -0.869 | -0.158 | -0.971 | – | – | – | –
16 | CNC(=O)c1cc(COc2nnc(Nc3ccc(Cl)cc3)c3ccoc23)ccn1 [Telatinib] | -0.252 | -0.862 | -0.226 | -0.739 | – | – | – | –
17 | CO[C@H]1C[C@@H]2CC[C@@H](C)[C@@](O)(O2)C(=O)C(=O)N2CCCC[C@H]2C(=O)O[C@H]([C@H](C)C[C@@H]2CC[C@@H](OC(=O)C(C)(CO)CO)[C@H](OC)C2)CC(=O)[C@H](C)/C=C(\C)[C@@H](O)[C@@H](OC)C(=O)[C@H](C)C[C@H](C)/C=C/C=C/C=C/1C [Temsirolimus (CCI-779)] | -0.361 | -2.07 | -0.393 | -1.36 | – | – | – | –
18 | O=C(NCc1ccccc1)c1csc(Nc2ccncn2)n1 [Thiazovivin] | -0.368 | -0.845 | -0.171 | -0.879 | – | – | – | –
19 | COc1ccc2cc(-c3nc(-c4ccc([S+](C)[O-])cc4)[nH]c3-c3ccncc3)ccc2c1 (stereo not shown) [Tie2 kinase inhibitor] | -4.75 | -0.713 | -0.238 | -1.05 | – | – | – | –
20 | COc1cc2nccc(Oc3ccc(NC(=O)Nc4cc(C)on4)c(Cl)c3)c2cc1OC [Tivozanib (AV-951)] | -0.402 | -0.0903 | -3.15 | -3.26 | – | – | – | –
21 | CC(=O)Nc1cccc(-n2c(=O)n(C3CC3)c(=O)c3c(Nc4ccc(I)cc4F)n(C)c(=O)c(C)c32)c1 [Trametinib (GSK1120212)] | -0.496 | -0.482 | -0.327 | -1.15 | – | – | – | –
22 | CC(C)(C)c1cc(C=C(C#N)C#N)cc(C(C)(C)C)c1O [Tyrphostin 9] | -0.346 | -0.564 | -0.79 | -0.298 | – | – | – | –
23 | CC(C)(C)c1cc(/C=C(\C#N)C(N)=S)cc(C(C)(C)C)c1O [Tyrphostin AG 879] | 0.259 | -0.339 | -0.277 | -0.358 | – | – | – | –
24 | COc1cc2ncc(-c3ccccc3)nc2cc1OC [Tyrphostin AG 1296] | -0.375 | -0.879 | -0.166 | -0.341 | – | – | – | –
25 | N#CC(=C(/N)Sc1ccccc1N)/C(C#N)=C(\N)Sc1ccccc1N [U0126-EtOH] | -0.582 | -1.26 | -0.611 | -1.09 | – | – | – | –

More lines, now with the values ahead:

Row | ΔTm at 10 µM (ZmDRIK1-K217-S514; [2]) [°C] | ΔTm at 10 µM [1, 3] [°C] | ΔTm at 10 µM (ZmDRIK1-R187-P492; [4]) [°C] | ΔTm at 10 µM (ZmDRIK1-K217-P492; [5]) [°C] | ΔTm at 10 µM (ZmDRIK1-K217-S514; read-out: dTm B) [°C] | ΔTm at 10 µM ([1]; read-out: dTm B) [°C] | ΔTm at 10 µM (ZmDRIK1-R187-P492; read-out: dTm B) [°C] | ΔTm at 10 µM (ZmDRIK1-K217-P492; read-out: dTm B) [°C] | Compound
26 | 1.35 | -25.6 | 0.579 | -0.527 | – | – | – | – | CC(C)(O)CC(=O)NCCn1ccc2ncnc(Nc3ccc(Oc4cccc(C(F)(F)F)c4)c(Cl)c3)c21 [TAK-285]
27 | -2.01 | 1.64 | -0.521 | 3.91 | – | – | – | – | N#Cc1c(Oc2ccc(F)c(NC(=O)Cc3cccc(C(F)(F)F)c3)c2)ccc2nc(NC(=O)C3CC3)sc12 [TAK-632]
28 | -0.442 | -0.0163 | -0.496 | -1.08 | – | – | – | – | CCc1nc(-c2cccc(C)c2)c(-c2ccnc(NC(=O)c3ccccc3)c2)s1 [TAK-715]
29 | -0.514 | -0.814 | -0.375 | -1.32 | – | – | – | – | Cn1c(=O)c(F)c(Nc2ccc(I)cc2F)c2c(=O)n(C[C@@H](O)CO)cnc21 [TAK-733]
30 | -0.0934 | -0.544 | -0.0329 | -0.353 | – | – | – | – | CCS(=O)(=O)c1cccc(-c2cc(C(=O)NC3CCN(C)CC3)c(C)c3[nH]c4ncc(C)cc4c23)c1 [TAK-901]
31 | -0.33 | -0.488 | -0.291 | -1.11 | – | – | – | – | CCN1/C(=C/C(C)=O)Sc2ccc(OC)cc21 [TG003]
32 | -0.317 | -0.897 | -0.311 | -0.984 | – | – | – | – | Cc1cnc(Nc2ccc(N3CCN(C)CC3)cc2)nc1Nc1cccc(S(=O)(=O)NC(C)(C)C)c1 [TG101209]
33 | -0.0845 | -0.944 | -0.136 | -0.973 | – | – | – | – | Cc1cc(C(C)Nc2ccccc2)c2nc(N3CCOCC3)cc(=O)n2c1 (stereo not shown) [TGX-221]
34 | – | – | – | – | -0.395 | -0.768 | -0.155 | 0.685 | Cc1ccccc1CN1C(=O)C2=C(CCN(Cc3ccccc3)C2)N2CCN=C12 [TIC10]
35 | -0.297 | -0.75 | -0.00936 | -0.79 | – | – | – | – | Nc1cccc(-c2cc3c(Oc4cccc(O)c4)ncnc3[nH]2)c1 [TWS119]
36 | -0.669 | -0.715 | -0.26 | -0.928 | – | – | – | – | CS(=O)(=O)c1ccc(-c2cnc(N)c(C(=O)Nc3ccccc3)n2)cc1 [VE-821]
37 | -0.454 | -0.91 | -0.196 | -0.634 | – | – | – | – | CNCc1ccc(-c2cc(-c3nc(-c4ccc(S(=O)(=O)C(C)C)cc4)cnc3N)on2)cc1 [VE-822]

Source: article PMC7158045 (BMC Plant Biology, 2020)
